pEC50, pIC50: −log10 of the molar value. Activity calls are given as the source filed them. The rule behind the calls is not given here.
Experiments:
[1] = Half life in SCID mouse at 10 mg/kg, po; format: ADME, organism-based; set-up: dose 10 mg/kg, route oral; details: in vivo
[2] = biological target: Dual specificity mitogen-activated protein kinase kinase 4 (Homo sapiens) (UniProt P45985); test: Inhibition of MEK4 at 0.1 uM
[3] = Half life in Sprague-Dawley rat at 1 mg/kg, iv; format: ADME, organism-based; set-up: dose 1 mg/kg, route intravenous; details: in vivo
[4] = Half life in Sprague-Dawley rat at 5 mg/kg, po; format: ADME, organism-based; set-up: dose 5 mg/kg, route oral; details: in vivo
[5] = biological target: Serine/threonine-protein kinase ULK3 (Homo sapiens) (UniProt Q6PHR2); test: Inhibition of ULK3 at 1 uM
Sequence of Serine/threonine-protein kinase ULK3 (Homo sapiens) (Q6PHR2 whole entry): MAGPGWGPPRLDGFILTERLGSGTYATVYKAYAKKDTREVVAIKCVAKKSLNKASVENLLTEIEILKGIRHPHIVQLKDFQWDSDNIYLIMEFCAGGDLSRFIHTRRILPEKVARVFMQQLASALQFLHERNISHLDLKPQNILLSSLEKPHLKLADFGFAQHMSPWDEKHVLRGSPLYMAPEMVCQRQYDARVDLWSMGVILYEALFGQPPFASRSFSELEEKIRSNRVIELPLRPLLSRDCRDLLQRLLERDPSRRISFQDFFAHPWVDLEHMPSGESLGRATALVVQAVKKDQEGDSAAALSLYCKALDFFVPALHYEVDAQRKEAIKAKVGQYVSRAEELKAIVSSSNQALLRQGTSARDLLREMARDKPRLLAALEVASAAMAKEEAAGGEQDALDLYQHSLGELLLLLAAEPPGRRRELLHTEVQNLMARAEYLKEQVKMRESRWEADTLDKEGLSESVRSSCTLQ

[6] = biological target: Serine/threonine-protein kinase ULK3 (Homo sapiens) (UniProt Q6PHR2); test: Inhibition of ULK3 at 0.1 uM
[7] = biological target: Epidermal growth factor receptor (Homo sapiens) (UniProt P04626+P00533+Q15303+P21860); test: Inhibition of EGFR L747 to E749 deletion, A750P mutant at 0.1 uM; format: protein assay
[8] = biological target: Serine/threonine-protein kinase 32B (Homo sapiens) (UniProt Q9NY57); test: Inhibition of YANK2 at 1 uM
Sequence of Serine/threonine-protein kinase 32B (Homo sapiens) (Q9NY57 whole entry): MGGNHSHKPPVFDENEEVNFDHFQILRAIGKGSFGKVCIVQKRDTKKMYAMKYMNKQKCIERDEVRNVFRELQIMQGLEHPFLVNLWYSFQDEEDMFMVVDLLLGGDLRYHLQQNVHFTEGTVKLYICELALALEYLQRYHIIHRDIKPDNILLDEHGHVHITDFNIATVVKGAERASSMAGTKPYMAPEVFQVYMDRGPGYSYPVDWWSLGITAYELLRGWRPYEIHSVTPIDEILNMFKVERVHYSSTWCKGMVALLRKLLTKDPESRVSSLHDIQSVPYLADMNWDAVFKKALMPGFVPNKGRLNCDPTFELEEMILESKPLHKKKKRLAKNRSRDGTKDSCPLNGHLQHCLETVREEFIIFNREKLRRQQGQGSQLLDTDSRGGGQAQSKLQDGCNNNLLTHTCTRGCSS

[9] = biological target: Dual specificity mitogen-activated protein kinase kinase 1 (Homo sapiens) (UniProt Q02750); test: Inhibition of MEK1 at 1 uM
Sequence of Dual specificity mitogen-activated protein kinase kinase 1 (Homo sapiens) (Q02750 whole entry): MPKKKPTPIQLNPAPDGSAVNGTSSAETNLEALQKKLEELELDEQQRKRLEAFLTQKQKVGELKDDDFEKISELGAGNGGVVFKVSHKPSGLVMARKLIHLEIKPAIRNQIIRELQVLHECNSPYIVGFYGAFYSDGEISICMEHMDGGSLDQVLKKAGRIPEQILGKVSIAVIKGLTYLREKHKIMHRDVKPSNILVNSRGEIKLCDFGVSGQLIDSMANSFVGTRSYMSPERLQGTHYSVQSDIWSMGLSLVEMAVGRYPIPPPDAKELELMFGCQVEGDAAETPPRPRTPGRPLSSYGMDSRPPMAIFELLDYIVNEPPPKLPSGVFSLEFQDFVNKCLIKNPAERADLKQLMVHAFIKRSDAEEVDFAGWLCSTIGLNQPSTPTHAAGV

[10] = tested on: Epidermal growth factor receptor (Homo sapiens), P04626+P00533+Q15303+P21860 [UNDEFINED MUTATION]; test: Inhibition of EGFR L747 to E749 deletion, A750P mutant at 1 uM; format: protein assay
[11] = tested on: Receptor-type tyrosine-protein kinase FLT3 (Homo sapiens), P36888 [D835Y]; test: Inhibition of FLT3 D835Y mutant at 1 uM
[12] = biological target: Fibroblast growth factor receptor 4 (Homo sapiens) (UniProt P22455); test: Inhibition of FGFR4 at 1 uM
[13] = biological target: T1, ALK tyrosine kinase receptor (Homo sapiens, UniProt Q9UM73); test: Inhibition of NPM-ALK autophosphorylation in human KARPAS299 cells; format: cell-based; details: karpas-299
Target sequence in this assay (Q9UM73 19-1620 limits assumed): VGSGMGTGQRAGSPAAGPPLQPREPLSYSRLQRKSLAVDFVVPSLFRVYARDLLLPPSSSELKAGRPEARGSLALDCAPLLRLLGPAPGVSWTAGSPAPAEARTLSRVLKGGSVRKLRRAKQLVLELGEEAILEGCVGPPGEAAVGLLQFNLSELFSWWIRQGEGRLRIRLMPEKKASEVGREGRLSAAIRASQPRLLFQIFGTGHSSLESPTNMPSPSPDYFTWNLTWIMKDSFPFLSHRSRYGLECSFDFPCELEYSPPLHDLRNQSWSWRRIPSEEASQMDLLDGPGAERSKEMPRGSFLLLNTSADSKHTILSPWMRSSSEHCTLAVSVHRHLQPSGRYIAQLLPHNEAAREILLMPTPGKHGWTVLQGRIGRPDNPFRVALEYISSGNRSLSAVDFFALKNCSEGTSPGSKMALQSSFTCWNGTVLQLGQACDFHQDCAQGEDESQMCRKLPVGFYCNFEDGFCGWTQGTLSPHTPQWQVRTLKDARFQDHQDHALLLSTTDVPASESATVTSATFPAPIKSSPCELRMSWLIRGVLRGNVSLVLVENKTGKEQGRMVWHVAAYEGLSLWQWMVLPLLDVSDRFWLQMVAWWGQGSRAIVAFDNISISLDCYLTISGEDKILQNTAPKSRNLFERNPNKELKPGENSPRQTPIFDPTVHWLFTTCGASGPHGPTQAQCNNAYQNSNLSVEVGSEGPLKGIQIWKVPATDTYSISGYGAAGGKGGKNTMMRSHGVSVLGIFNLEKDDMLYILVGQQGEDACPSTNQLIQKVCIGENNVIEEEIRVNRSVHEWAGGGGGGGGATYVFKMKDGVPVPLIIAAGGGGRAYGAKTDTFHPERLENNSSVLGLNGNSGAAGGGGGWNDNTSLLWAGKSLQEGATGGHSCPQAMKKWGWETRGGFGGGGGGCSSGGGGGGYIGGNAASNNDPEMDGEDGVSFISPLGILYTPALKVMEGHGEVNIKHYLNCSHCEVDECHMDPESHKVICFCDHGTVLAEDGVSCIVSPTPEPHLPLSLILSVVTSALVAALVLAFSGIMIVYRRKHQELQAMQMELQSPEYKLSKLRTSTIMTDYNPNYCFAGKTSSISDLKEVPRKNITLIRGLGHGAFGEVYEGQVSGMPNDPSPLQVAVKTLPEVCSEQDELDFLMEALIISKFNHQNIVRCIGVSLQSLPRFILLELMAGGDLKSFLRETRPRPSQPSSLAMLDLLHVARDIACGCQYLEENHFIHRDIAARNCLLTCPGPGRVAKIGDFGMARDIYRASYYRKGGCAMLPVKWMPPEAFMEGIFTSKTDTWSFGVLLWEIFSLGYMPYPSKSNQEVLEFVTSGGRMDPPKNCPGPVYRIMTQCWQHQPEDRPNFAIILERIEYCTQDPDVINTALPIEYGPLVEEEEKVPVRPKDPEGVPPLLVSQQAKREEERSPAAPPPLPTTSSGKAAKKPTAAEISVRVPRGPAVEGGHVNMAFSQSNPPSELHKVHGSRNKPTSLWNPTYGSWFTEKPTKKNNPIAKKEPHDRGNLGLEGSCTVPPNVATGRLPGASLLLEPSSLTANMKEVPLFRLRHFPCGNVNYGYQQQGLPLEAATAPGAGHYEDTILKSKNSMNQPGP

[14] = AUC in Sprague-Dawley rat at 5 mg/kg, po; format: ADME, organism-based; set-up: dose 5 mg/kg, route oral; details: plasma
[15] = tested on: Epidermal growth factor receptor (Homo sapiens), P00533 [L861Q]; test: Inhibition of EGFR L861Q mutant at 1 uM; format: protein assay
SUP-M2 [16] = test: Induction apoptosis in ALK-positive human SUP-M2 cells assessed as activation of caspase 3/7 by fluorometric assay; format: functional, cell-based
[17] = Oral bioavailability in SCID mouse at 10 mg/kg; format: ADME, organism-based; details: in vivo
[18] = Half life in beagle dog at 10 mg/kg, po; format: ADME, organism-based, Canis lupus familiaris; set-up: dose 10 mg/kg, route oral; details: in vivo
[19] = biological target: Proto-oncogene tyrosine-protein kinase ROS (Homo sapiens) (UniProt P08922); test: Inhibition of ROS at 1 uM
Mus musculus = test: Toxicity in SCID mouse xenografted with human SUP-M2 cells assessed as weight loss at 10 mg/kg, po BID for 12 days; format: organism-based; set-up: dose 10 mg/kg, route oral; details: in vivo, 288 h
[20] = biological target: Protein-tyrosine kinase 2-beta (Homo sapiens) (UniProt Q14289); test: Inhibition of PYK2 at 1 uM
Sequence of Protein-tyrosine kinase 2-beta (Homo sapiens) (Q14289 whole entry, looked up): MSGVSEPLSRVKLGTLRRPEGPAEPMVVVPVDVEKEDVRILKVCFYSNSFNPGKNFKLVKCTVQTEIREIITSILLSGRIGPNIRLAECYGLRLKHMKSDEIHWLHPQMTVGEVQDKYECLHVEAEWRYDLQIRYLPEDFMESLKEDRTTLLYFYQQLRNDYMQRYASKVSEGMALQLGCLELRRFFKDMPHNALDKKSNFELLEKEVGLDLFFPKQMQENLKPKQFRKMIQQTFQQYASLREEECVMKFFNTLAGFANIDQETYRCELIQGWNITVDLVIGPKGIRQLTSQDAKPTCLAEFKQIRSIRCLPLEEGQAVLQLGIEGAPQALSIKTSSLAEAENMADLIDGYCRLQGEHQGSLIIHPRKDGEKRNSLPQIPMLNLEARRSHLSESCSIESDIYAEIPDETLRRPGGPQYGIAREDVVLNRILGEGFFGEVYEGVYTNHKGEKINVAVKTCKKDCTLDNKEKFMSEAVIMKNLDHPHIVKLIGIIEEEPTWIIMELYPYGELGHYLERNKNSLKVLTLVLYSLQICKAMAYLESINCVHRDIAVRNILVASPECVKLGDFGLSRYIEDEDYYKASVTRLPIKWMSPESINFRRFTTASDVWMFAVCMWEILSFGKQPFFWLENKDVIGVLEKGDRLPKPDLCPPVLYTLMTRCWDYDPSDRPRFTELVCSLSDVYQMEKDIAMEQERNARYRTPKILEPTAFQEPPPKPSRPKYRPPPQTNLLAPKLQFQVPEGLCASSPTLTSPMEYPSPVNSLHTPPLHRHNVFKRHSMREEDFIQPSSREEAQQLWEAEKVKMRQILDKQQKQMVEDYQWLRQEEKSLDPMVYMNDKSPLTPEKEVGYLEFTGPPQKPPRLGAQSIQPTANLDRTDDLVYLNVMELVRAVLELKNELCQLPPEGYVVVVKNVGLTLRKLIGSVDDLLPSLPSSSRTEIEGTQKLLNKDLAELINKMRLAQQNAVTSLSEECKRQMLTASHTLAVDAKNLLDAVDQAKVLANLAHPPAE

[21] = biological target: Macrophage colony-stimulating factor 1 receptor (Homo sapiens) (UniProt P07333); test: Inhibition of CSF1R at 1 uM
[22] = biological target: Mitogen-activated protein kinase 8 (Homo sapiens) (UniProt P45983); test: Inhibition of JNK1 at 1 uM
[23] = biological target: Platelet-derived growth factor receptor beta (Homo sapiens) (UniProt P09619); test: Inhibition of PDGFRB at 1 uM
[24] = biological target: Serine/threonine-protein kinase PLK4 (Homo sapiens) (UniProt O00444); test: Inhibition of PLK4 at 1 uM
Sequence of Serine/threonine-protein kinase PLK4 (Homo sapiens) (O00444 whole entry): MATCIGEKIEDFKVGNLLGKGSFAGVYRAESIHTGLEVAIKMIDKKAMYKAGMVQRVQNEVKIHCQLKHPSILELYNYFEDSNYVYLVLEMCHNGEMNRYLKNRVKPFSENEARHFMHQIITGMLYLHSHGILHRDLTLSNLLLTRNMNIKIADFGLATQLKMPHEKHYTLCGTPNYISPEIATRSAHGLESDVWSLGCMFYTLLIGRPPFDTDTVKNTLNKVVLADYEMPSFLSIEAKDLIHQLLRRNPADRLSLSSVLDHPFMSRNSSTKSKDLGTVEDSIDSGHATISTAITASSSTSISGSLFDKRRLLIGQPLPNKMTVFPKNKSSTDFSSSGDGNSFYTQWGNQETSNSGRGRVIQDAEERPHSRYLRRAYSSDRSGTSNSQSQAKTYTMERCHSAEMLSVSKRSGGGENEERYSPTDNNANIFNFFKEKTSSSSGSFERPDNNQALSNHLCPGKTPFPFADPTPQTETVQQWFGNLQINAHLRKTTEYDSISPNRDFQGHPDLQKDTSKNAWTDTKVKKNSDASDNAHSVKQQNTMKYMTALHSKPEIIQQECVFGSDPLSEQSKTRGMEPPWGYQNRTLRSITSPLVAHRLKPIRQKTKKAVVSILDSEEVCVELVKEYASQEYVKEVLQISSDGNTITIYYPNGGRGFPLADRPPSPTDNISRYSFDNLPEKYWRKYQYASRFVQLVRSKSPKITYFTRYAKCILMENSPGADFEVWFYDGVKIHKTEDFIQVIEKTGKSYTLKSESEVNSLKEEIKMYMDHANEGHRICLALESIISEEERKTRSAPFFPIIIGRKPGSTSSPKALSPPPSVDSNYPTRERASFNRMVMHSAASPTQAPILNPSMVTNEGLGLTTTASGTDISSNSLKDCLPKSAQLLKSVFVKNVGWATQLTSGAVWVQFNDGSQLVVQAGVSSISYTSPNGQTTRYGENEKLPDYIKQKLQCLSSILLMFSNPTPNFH

[25] = biological target: Cyclin-G-associated kinase (Homo sapiens) (UniProt O14976); test: Inhibition of GAK at 1 uM
[26] = biological target: Dual specificity mitogen-activated protein kinase kinase 1 (Homo sapiens) (UniProt Q02750); test: Inhibition of MEK1 at 0.1 uM
[27] = biological target: Ribosomal protein S6 kinase alpha-1 (Homo sapiens) (UniProt Q15418); test: Inhibition of RPS6KA1 at 0.1 uM
[28] = tested on: Receptor-type tyrosine-protein kinase FLT3 (Homo sapiens), P36888 [N841I]; test: Inhibition of FLT3 N841I mutant at 1 uM
[29] = Ratio of drug level in tumor to plasma in SCID mouse; format: ADME; details: tumor and plasma
[30] = biological target: Focal adhesion kinase 1 (Homo sapiens) (UniProt Q05397); test: Inhibition of FAK at 1 uM
SUP-M2 [31] = test: Antitumor activity against ALK-positive human SUP-M2 cells xenografted in SCID mouse assessed as complete tumor regression at 55 mg/kg, po bid after 12 days; format: functional, organism-based; set-up: dose 55 mg/kg
[32] = biological target: Epidermal growth factor receptor (Homo sapiens) (UniProt P00533); test: Inhibition of EGFR at 1 uM
SUP-M2 [33] = test: Antitumor activity against ALK-positive human SUP-M2 cells xenografted in SCID mouse at 10 mg/kg, po bid after 12 days; format: functional, organism-based; set-up: dose 10 mg/kg
Rattus norvegicus = test: Clearance with respect to hepatic blood flow in Sprague-Dawley rat at 1 mg/kg, iv; format: ADME, organism-based, Liver; set-up: dose 1 mg/kg, route intravenous; details: in vivo
[34] = Tmax in Sprague-Dawley rat at 5 mg/kg, po; format: ADME, organism-based; set-up: dose 5 mg/kg, route oral; details: in vivo
[35] = tested on: Mast/stem cell growth factor receptor Kit (Homo sapiens), P10721 [D816V]; test: Inhibition of KIT D816V mutant at 0.1 uM
[36] = tested on: Receptor-type tyrosine-protein kinase FLT3 (Homo sapiens), P36888 [D835H]; test: Inhibition of FLT3 D835H mutant at 1 uM
[37] = Drug uptake in tumor lysates in SCID mouse xenografted with ALK-positive human SUP-M2 cells at 30 mg/kg, po bid for 12 days; format: ADME, organism-based, Neoplasm; set-up: dose 30 mg/kg, route oral; details: read-out: Drug uptake
[38] = biological target: Protein-tyrosine kinase 6 (Homo sapiens) (UniProt Q13882); test: Inhibition of BRK at 0.1 uM
[39] = biological target: T1, ALK tyrosine kinase receptor; test: Inhibition of ALK
[40] = biological target: T1, ALK tyrosine kinase receptor; test: Inhibition of NPM-ALK autophosphorylation in human KARPAS299 cells in presence of mouse plasma; format: cell-based; details: karpas-299
Target sequence in this assay (Q9UM73 19-1620 limits assumed): as the sequence (Q9UM73 19-1620 limits assumed) above

[41] = Plasma clearance in SCID mouse at 1 mg/kg, iv by LC/MS/MS analysis; format: ADME, organism-based; set-up: dose 1 mg/kg, route intravenous
[42] = biological target: Protein-tyrosine kinase 2-beta (Homo sapiens) (UniProt Q14289); test: Inhibition of PYK2 at 0.1 uM
[43] = Tmax in beagle dog at 10 mg/kg, po; format: ADME, organism-based, Canis lupus familiaris; set-up: dose 10 mg/kg, route oral; details: in vivo
[44] = AUC in SCID mouse at 10 mg/kg, po; format: ADME, organism-based; set-up: dose 10 mg/kg, route oral; details: plasma
[45] = biological target: Serine/threonine-protein kinase 32B (Homo sapiens) (UniProt Q9NY57); test: Inhibition of YANK2 at 0.1 uM
[46] = biological target: Mitogen-activated protein kinase 8 (Homo sapiens) (UniProt P45983); test: Inhibition of JNK1 at 0.1 uM
[47] = tested on: Mast/stem cell growth factor receptor Kit (Homo sapiens), P10721 [D816V]; test: Inhibition of KIT D816V mutant at 1 uM
[48] = biological target: Serine/threonine-protein kinase PLK4 (Homo sapiens) (UniProt O00444); test: Inhibition of PLK4 at 0.1 uM
[49] = biological target: Mitogen-activated protein kinase kinase kinase 5 (Homo sapiens) (UniProt Q99683); test: Inhibition of ASK1 at 0.1 uM
[50] = Volume of distribution in Sprague-Dawley rat at 1 mg/kg, iv; format: ADME, organism-based; set-up: dose 1 mg/kg, route intravenous; details: in vivo
[51] = Growth inhibition of ALK-positive human SUP-M2 cells by MTS assay; format: functional, cell-based

- half-life [1]: 2.4 h
- inhibition [2]: < 50%
- half-life [3]: 0.8 h
- half-life [4]: 2.2 h
- inhibition [5]: 94%
- inhibition [6]: < 50%
- inhibition [7]: < 50%
- inhibition [8]: 92%
- inhibition [9]: 91%
- inhibition [10]: 94%
- inhibition [11]: 96%
- inhibition [12]: 98%
- pIC50 [13]: 7.35
- AUC [14]: 4090 ng·h/mL
- inhibition [15]: 93%
- bioavailability [17]: 32%
- half-life [18]: 1.6 h
- inhibition [19]: 93%
- inhibition [20]: 99%
- inhibition [21]: 91%
- inhibition [22]: 100%
- inhibition [23]: 98%
- inhibition [24]: 95%
- inhibition [25]: 91%
- inhibition [26]: < 50%
- inhibition [27]: 68%
- inhibition [28]: 95%
- Kp [29]: 1.3
- inhibition [30]: 99%
- inhibition [32]: 96%
- CL (Rattus norvegicus): 20%
- Tmax [34]: 0.8 h
- inhibition [35]: 94%
- inhibition [36]: 95%
- concentration at 288 h [37]: 405 ng/g
- inhibition [38]: 88%
- pIC50 [39]: 7.85
- pIC50 [40]: 6.65
- clearance [41]: 37 mL/min/kg
- inhibition [42]: 90%
- Tmax [43]: 1.1 h
- AUC [44]: 1410 ng·h/mL
- inhibition [45]: < 50%
- inhibition [46]: 81%
- inhibition [47]: 99%
- inhibition [48]: 95%
- inhibition [49]: 72%
- Vd [50]: 0.9 L/kg
Structure (SMILES): CCN1C(=O)CCCc2c1ccc(Nc1ncc(Cl)c(N[C@H]3[C@@H](C(N)=O)[C@@H]4C=C[C@H]3C4)n1)c2OC
- Activity (SUP-M2 [16]): Active
- Activity (Mus musculus): Non-toxic
- Activity (SUP-M2 [31]): Active
- Activity (SUP-M2 [33]): inactive
- pEC50 [51]: 6.70
